Data set [1] is described as follows: Compound cytotoxicity, XTT-based colorimetric assay. The following applies: human, uninfected MT2 cells. Type of data set: cell-based. The procedure:
Compound cytotoxicity and the corresponding CC50 values were determined using the same protocol as described in the antiviral assay except that uninfected cells were used. Cytotoxicity was assessed on day 4 in uninfected MT2 cells by using a XTT (2,3-bis[2-Methoxy-4-nitro-5-sulfophenyl]-2H-tetrazolium-5-carboxyanilide inner salt)-based colorimetric assay (Sigma-Aldrich, St Louis, Mo.). Biological data for select compounds of the invention are contained in Table 1 and Table 1a

Data set [2] concerns recombinant NL4-3 virus (nef section replaced with Renilla luciferase gene) in MT-2 cells. Briefly: HIV cell culture assay (antiviral activity, luciferase readout). It is filed as cell-based. Conditions: MT-2 cells infected for 4-5 days with recombinant NL4-3 luciferase virus. As to the method: HIV cell culture assay—MT-2 cells, 293T cells and the proviral DNA clone of NL4-3 virus were obtained from the NIH AIDS Research and Reference Reagent Program. MT-2 cells were propagated in RPMI 1640 media supplemented with 10% heat inactivated fetal bovine serum (FBS), 100 μg/ml penicillin G and up to 100 units/mL streptomycin. The 293T cells were propagated in DMEM media supplemented with 10% heat inactivated FBS, 100 μg/mL penicillin G and 100 μg/mL streptomycin. A recombinant NL4-3 proviral clone, in which a section of the nef gene was replaced with the Renilla luciferase gene, was used to make the reference virus used in these studies. The recombinant virus was prepared through transfection of the recombinant NL4-3 proviral clone into 293T cells using Transit-293 Transfection Reagent from Mirus Bio LLC (Madison, Wis.). Supernatent was harvested after 2-3 days and the amount of virus present was titered in MT-2 cells using luciferase enzyme activity as a marker by measuring luciferase enzyme activity. Luciferase was quantitated using the EnduRen Live Cell Substrate from Promega (Madison, Wis.). Antiviral activities of compounds toward the recombinant virus were quantified by measuring luciferase activity in MT-2 cells infected for 4-5 days with the recombinant virus in the presence of serial dilutions of the compound.
The 50% effective concentration (ECs) was calculated by using the exponential form of the median effect equation where (Fa)=1/[1+(ED50/drug conc.)^m] (Johnson Va., Byington RT. Infectivity Assay. In Techniques in HIV Research. ed. Aldovini A, Walker BD. 71-76. New York: Stockton Press. 1990).

Where only a bound is given, the exact number is not on record here.

The CC50 is the concentration giving 50% cytotoxicity. A low value points to harm at low concentration. Usually EC50 stands for the concentration at which the effect is half-maximal. `Cn1nc(NS(C)(=O)=O)c2c(Cl)ccc(-n3c([C@H](Cc4cc(F)cc(F)c4)NC(=O)Cn4nc(C(F)F)c5c4C(F)(F)[C@@H]4C[C@H]54)nc4cc(Cl)cc(Cl)c4c3=O)c21` (mixture of isomers) [Example 178, N—((S)-1-(5,7-dichloro-3-(4-chloro-1-methyl-3-(methylsulfonamido)-1H-indazol-7-yl)-4-oxo-3,4-dihydroquinazolin-2-yl)-2-(3,5-difluorophenyl)ethyl)-2-((3bS,4aR)-3-(difluoromethyl)-5,5-difluoro-3b,4,4a,5-tetrahydro-1H-cyclopropa[3,4]cyclopenta[1,2-c]pyrazol-1-yl)acetamide] gave a CC50 at 4 days in data set [1] (Table 1a, day 4, XTT) greater than 1 µM. Moreover, the EC50 in data set [2] (Renilla, NL43, Table 1a) was 0.0181 µM.
`COc1cc(F)c2c(=O)n(-c3ccc(Cl)c4c(NS(C)(=O)=O)nn(C)c34)c([C@H](Cc3cc(F)cc(F)c3)NC(=O)Cn3nc(C(F)F)c4c3C(F)(F)[C@@H]3C[C@H]43)nc2c1` (mixture of isomers) [Example 185, N—((S)-1-(3-(4-chloro-1-methyl-3-(methylsulfonamido)-1H-indazol-7-yl)-5-fluoro-7-methoxy-4-oxo-3,4-dihydroquinazolin-2-yl)-2-(3,5-difluorophenyl)ethyl)-2-((3bS,4aR)-3-(difluoromethyl)-5,5-difluoro-3b,4,4a,5-tetrahydro-1H-cyclopropa[3,4]cyclopenta[1,2-c]pyrazol-1-yl)acetamide] showed a CC50 at 4 days in data set [1] (Table 1a, day 4, XTT) greater than 1 µM. Also, the EC50 in data set [2] (Renilla, NL43, Table 1a) turned out to be 0.0873 µM.
In the same order, the values of `Cn1nc(NS(C)(=O)=O)c2c(Cl)ccc(-c3cc4sc(N)nc4nc3C(Cc3cc(F)cc(F)c3)NC(=O)Cn3nc(C(F)F)c4c3C(F)(F)[C@@H]3C[C@H]43)c21` (mixture of isomers) [Example 194, N-(1-(2-amino-6-(4-chloro-1-methyl-3-(methylsulfonamido)-1H-indazol-7-yl)thiazolo[4,5-b]pyridin-5-yl)-2-(3,5-difluorophenyl)ethyl)-2-((3bS,4aR)-3-(difluoromethyl)-5,5-difluoro-3b,4,4a,5-tetrahydro-1H-cyclopropa[3,4]cyclopenta[1,2-c]pyrazol-1-yl)acetamide] are greater than 10 µM and 0.0019 µM.
Turning to `Cn1nc(NS(C)(=O)=O)c2c(Cl)ccc(-n3c([C@H](Cc4cc(F)cc(F)c4)NC(=O)Cn4nc(C(F)F)c5c4C(F)(F)[C@@H]4C[C@H]54)nc4cc(C(C)(F)F)ccc4c3=O)c21` (mixture of isomers) [Example 195, N—((S)-1-(3-(4-chloro-1-methyl-3-(methylsulfonamido)-1H-indazol-7-yl)-7-(1,1-difluoroethyl)-4-oxo-3,4-dihydroquinazolin-2-yl)-2-(3,5-difluorophenyl)ethyl)-2-((3bS,4aR)-3-(difluoromethyl)-5,5-difluoro-3b,4,4a,5-tetrahydro-1H-cyclopropa[3,4]cyclopenta[1,2-c]pyrazol-1-yl)acetamide], the 50% cytotoxic concentration (CC50) at 4 days in data set [1] (Table 1a, day 4, XTT) is greater than 1 µM. The EC50 in data set [2] (Renilla, NL43, Table 1a) worked out at 0.0744 µM.
For `Cn1nc(NS(C)(=O)=O)c2c(Cl)ccc(-n3c([C@H](Cc4cc(F)cc(F)c4)NC(=O)Cn4nc(C(F)F)c5c4C(F)(F)[C@@H]4C[C@H]54)nc4cc(C5CC5)ccc4c3=O)c21` (mixture of isomers) [Example 197, N—((S)-1-(3-(4-chloro-1-methyl-3-(methylsulfonamido)-1H-indazol-7-yl)-7-cyclopropyl-4-oxo-3,4-dihydroquinazolin-2-yl)-2-(3,5-difluorophenyl)ethyl)-2-((3bS,4aR)-3-(difluoromethyl)-5,5-difluoro-3b,4,4a,5-tetrahydro-1H-cyclopropa[3,4]cyclopenta[1,2-c]pyrazol-1-yl)acetamide], in data set [1] (Table 1a, day 4, XTT), the cytotoxic concentration (CC50) at 4 days is greater than 1 µM. The EC50 in data set [2] (Table 1a) was 0.0426 µM.
For `Cn1nc(NS(C)(=O)=O)c2c(Cl)ccc(-n3c([C@H](Cc4cc(F)cc(F)c4)NC(=O)Cn4nc(C(F)F)c5c4C(F)(F)[C@@H]4C[C@H]54)nc4cc(S(C)(=O)=O)ccc4c3=O)c21` (mixture of isomers) [Example 199, N—((S)-1-(3-(4-chloro-1-methyl-3-(methylsulfonamido)-1H-indazol-7-yl)-7-(methylsulfonyl)-4-oxo-3,4-dihydroquinazolin-2-yl)-2-(3,5-difluorophenyl)ethyl)-2-((3bS,4aR)-3-(difluoromethyl)-5,5-difluoro-3b,4,4a,5-tetrahydro-1H-cyclopropa[3,4]cyclopenta[1,2-c]pyrazol-1-yl)acetamide] the same measures were greater than 1 µM and 0.0328 µM.
In data set [1] (Table 1a, day 4, XTT), `Cn1nc(NS(C)(=O)=O)c2c(Cl)ccc(-n3c([C@H](Cc4cc(F)cc(F)c4)NC(=O)Cn4nc(C(F)F)c5c4C(F)(F)[C@@H]4C[C@H]54)nc4cc(CS(C)(=O)=O)ccc4c3=O)c21` (mixture of isomers) [Example 201, N—((S)-1-(3-(4-chloro-1-methyl-3-(methylsulfonamido)-1H-indazol-7-yl)-7-((methylsulfonyl)methyl)-4-oxo-3,4-dihydroquinazolin-2-yl)-2-(3,5-difluorophenyl)ethyl)-2-((3bS,4aR)-3-(difluoromethyl)-5,5-difluoro-3b,4,4a,5-tetrahydro-1H-cyclopropa[3,4]cyclopenta[1,2-c]pyrazol-1-yl)acetamide] had a CC50 at 4 days greater than 1 µM. Besides, the EC50 in data set [2] (Table 1a) was found to be 0.0718 µM.
In the same order, the values of `Cn1nc(NS(C)(=O)=O)c2c(Cl)ccc(-n3c([C@H](Cc4cc(F)cc(F)c4)NC(=O)Cn4nc(C(F)F)c5c4C(F)(F)[C@@H]4C[C@H]54)nc4cc(C(C)(C)S(C)(=O)=O)ccc4c3=O)c21` (mixture of isomers) [Example 207, N—((S)-1-(3-(4-chloro-1-methyl-3-(methylsulfonamido)-1H-indazol-7-yl)-7-(2-(methylsulfonyl)propan-2-yl)-4-oxo-3,4-dihydroquinazolin-2-yl)-2-(3,5-difluorophenyl)ethyl)-2-((3bS,4aR)-3-(difluoromethyl)-5,5-difluoro-3b,4,4a,5-tetrahydro-1H-cyclopropa[3,4]cyclopenta[1,2-c]pyrazol-1-yl)acetamide] are greater than 1 µM and 0.00449 µM.
`Cn1nc(NS(C)(=O)=O)c2c(Cl)ccc(-n3c([C@H](Cc4cc(F)cc(F)c4)NC(=O)Cn4nc(C(F)F)c5c4C(F)(F)[C@@H]4C[C@H]54)nc4cc(C(C)(C)C)ccc4c3=O)c21` (mixture of isomers) [Example 215, N—((S)-1-(7-(tert-Butyl)-3-(4-chloro-1-methyl-3-(methylsulfonamido)-1H-indazol-7-yl)-4-oxo-3,4-dihydroquinazolin-2-yl)-2-(3,5-difluorophenyl)ethyl)-2-((3bS,4aR)-3-(difluoromethyl)-5,5-difluoro-3b,4,4a,5-tetrahydro-1H-cyclopropa[3,4]cyclopenta[1,2-c]pyrazol-1-yl)acetamide]: the CC50 at 4 days in data set [1] (Table 1a, day 4, XTT) was greater than 1 µM. The EC50 in data set [2] (Table 1a) amounted to 0.354 µM.
Turning to `Cn1nc(NS(C)(=O)=O)c2c(Cl)ccc(-n3c(C(Cc4cc(F)cc(F)c4)NC(=O)Cn4nc(C(F)F)c5c4C(F)(F)[C@@H]4C[C@H]54)nc4cccc(Cl)c4c3=O)c21` (mixture of isomers) [Example 22.1, N—((S)-1-(5-chloro-3-(4-chloro-1-methyl-3-(methylsulfonamido)-1H-indazol-7-yl)-4-oxo-3,4-dihydroquinazolin-2-yl)-2-(3,5-difluorophenyl)ethyl)-2-((3bS,4aR)-3-(difluoromethyl)-5,5-difluoro-3b,4,4a,5-tetrahydro-1H-cyclopropa[3,4]cyclopenta[1,2-c]pyrazol-1-yl)acetamide], the CC50 at 4 days in data set [1] (Table 1, day 4, XTT) is greater than 1 µM. In addition, the EC50 in data set [2] (Renilla, NL43, Table 1) came out at 31.6 µM.
`Cc1cc(F)c2c(=O)n(-c3ccc(Cl)c4c(NS(C)(=O)=O)nn(C)c34)c(C(Cc3cc(F)cc(F)c3)NC(=O)Cn3nc(C(F)F)c4c3C(F)(F)[C@@H]3C[C@H]43)nc2c1` (mixture of isomers) [Example 171, N—((S)-1-(3-(4-chloro-1-methyl-3-(methylsulfonamido)-1H-indazol-7-yl)-5-fluoro-7-methyl-4-oxo-3,4-dihydroquinazolin-2-yl)-2-(3,5-difluorophenyl)ethyl)-2-((3bS,4aR)-3-(difluoromethyl)-5,5-difluoro-3b,4,4a,5-tetrahydro-1H-cyclopropa[3,4]cyclopenta[1,2-c]pyrazol-1-yl)acetamide] came in with a CC50 at 4 days in data set [1] (Table 1a, day 4, XTT) greater than 1 µM. Moreover, in data set [2] (Renilla, NL43, Table 1a), the EC50 stood at 0.00396 µM.
In turn, `Cn1nc(NS(C)(=O)=O)c2c(Cl)ccc(-c3cc4scnc4nc3C(Cc3cc(F)cc(F)c3)NC(=O)Cn3nc(C(F)F)c4c3C(F)(F)[C@@H]3C[C@H]43)c21` (single isomer, unassigned) [Example 1.4] had a CC50 at 4 days in data set [1] (Table 1, day 4, XTT) greater than 10 µM. Moreover, the EC50 in data set [2] (Table 1) is 0.0001 µM.

Source of the values: patent publication US10954252B1, “Inhibitors of human immunodeficiency virus replication” (ViiV HEALTHCARE UK (NO.5) LIMITED, priority 2017, dated 2021).
